Results taken from ChEMBL document CHEMBL1201862, “PubChem BioAssay data set” (2004).
Activity calls are given as the source filed them. Rule as the data show it, for most assays here: actives have a measured AC50 and inactives only a lower limit.

Legend:
[1] = biological target: T1, Histone-lysine N-methyltransferase NSD2 (Homo sapiens, UniProt O96028); assay type: biochemical
T1 sequence (O96028 whole entry): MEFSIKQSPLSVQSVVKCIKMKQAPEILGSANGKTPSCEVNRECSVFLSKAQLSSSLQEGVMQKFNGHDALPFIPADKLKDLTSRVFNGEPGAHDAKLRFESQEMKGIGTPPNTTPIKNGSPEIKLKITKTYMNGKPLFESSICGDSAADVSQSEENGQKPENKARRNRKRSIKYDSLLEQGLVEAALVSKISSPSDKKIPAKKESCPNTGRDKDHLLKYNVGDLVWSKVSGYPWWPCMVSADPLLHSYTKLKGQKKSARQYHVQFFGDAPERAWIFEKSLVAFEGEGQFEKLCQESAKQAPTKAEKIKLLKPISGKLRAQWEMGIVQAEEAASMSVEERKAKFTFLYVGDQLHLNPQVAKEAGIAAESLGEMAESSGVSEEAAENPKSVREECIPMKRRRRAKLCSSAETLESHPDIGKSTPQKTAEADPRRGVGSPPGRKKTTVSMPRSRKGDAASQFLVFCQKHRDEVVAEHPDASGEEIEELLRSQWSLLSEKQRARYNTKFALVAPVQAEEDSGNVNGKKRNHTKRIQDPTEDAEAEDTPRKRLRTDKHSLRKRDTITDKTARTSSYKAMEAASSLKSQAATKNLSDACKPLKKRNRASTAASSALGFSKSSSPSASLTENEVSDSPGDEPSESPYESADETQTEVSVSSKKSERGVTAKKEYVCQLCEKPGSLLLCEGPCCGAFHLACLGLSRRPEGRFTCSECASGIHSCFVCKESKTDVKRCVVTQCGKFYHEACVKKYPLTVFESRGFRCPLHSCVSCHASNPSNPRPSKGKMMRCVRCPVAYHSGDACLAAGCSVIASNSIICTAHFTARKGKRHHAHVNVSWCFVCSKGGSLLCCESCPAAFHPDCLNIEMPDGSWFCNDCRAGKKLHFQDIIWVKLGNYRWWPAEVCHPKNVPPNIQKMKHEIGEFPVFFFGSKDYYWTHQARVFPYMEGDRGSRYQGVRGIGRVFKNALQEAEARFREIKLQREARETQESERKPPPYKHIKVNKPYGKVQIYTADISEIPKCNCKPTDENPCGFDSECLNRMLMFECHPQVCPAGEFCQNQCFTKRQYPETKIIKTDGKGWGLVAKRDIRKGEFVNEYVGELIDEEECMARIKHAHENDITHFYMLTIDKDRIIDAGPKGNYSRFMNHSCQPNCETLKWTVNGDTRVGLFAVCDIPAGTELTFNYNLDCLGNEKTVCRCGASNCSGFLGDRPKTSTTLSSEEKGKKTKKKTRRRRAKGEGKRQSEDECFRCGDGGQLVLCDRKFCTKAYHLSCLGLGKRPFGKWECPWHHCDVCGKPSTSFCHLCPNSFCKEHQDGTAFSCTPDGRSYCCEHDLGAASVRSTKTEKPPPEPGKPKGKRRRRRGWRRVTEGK

[2] = biological target: T2, Replicative DNA helicase DnaB (Mycobacterium tuberculosis, UniProt P9WMR3); test: DnaB intein splicing inhibitors, dose response, biochemical, cell-free fluorescence (AID 449749); assay type: functional
T2 sequence (P9WMR3 whole entry): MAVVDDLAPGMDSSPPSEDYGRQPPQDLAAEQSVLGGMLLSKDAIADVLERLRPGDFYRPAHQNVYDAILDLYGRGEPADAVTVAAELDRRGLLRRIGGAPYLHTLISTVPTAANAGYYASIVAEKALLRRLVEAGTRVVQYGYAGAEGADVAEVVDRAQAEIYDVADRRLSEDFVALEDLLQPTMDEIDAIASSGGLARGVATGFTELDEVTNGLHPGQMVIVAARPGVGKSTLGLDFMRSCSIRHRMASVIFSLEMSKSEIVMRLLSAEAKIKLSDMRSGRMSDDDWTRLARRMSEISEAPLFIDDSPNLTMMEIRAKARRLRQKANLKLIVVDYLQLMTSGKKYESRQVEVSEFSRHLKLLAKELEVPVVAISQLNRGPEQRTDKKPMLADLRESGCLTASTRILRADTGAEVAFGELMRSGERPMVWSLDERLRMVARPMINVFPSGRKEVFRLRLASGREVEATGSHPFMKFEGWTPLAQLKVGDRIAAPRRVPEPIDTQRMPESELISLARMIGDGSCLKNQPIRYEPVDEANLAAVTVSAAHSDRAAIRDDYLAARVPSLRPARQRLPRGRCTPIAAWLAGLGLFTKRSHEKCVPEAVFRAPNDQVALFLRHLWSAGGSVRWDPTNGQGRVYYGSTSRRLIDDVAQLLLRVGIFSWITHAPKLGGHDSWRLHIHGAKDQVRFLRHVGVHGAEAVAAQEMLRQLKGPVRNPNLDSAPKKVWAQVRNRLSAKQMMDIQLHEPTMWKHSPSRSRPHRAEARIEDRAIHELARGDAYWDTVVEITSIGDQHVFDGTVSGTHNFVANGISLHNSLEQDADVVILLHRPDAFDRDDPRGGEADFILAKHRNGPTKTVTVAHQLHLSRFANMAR

Leucine aminopeptidase = biological target: T3, Leucine aminopeptidase (Plasmodium falciparum 3D7, UniProt Q8IL11); test: P. falciparum M17LAP inhibitors, primary screen, biochemical, fluorogenic H-Leu-NHMec substrate, 1536-well (AID 1619); assay type: functional
T3 sequence (Q8IL11 whole entry): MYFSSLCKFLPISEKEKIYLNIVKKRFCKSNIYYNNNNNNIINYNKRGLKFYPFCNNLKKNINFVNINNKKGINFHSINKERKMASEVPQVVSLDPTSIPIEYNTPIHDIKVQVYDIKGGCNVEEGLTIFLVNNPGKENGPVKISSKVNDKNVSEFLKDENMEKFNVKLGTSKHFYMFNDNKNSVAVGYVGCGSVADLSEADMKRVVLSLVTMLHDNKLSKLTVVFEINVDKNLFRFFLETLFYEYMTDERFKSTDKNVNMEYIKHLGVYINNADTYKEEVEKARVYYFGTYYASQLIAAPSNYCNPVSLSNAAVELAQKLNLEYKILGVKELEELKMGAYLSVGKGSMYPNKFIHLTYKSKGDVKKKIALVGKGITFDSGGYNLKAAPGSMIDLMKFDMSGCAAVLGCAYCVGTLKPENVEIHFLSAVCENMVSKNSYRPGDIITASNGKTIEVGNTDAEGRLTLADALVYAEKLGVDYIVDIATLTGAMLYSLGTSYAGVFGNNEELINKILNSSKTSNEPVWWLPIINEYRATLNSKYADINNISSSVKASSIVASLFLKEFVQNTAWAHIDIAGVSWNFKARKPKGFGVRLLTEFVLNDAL

SMILES	AC50 [1]	AC50 [2]	IC50 (Leucine aminopeptidase)
COc1cc(C(=O)c2nccc3cc(OC)c(OC)cc23)c([N+](=O)[O-])cc1OC	> 20 µM (inactive)	0.273 µM (active)	
N=C1S/C(=C\c2ccc(-c3ccccc3C(=O)O)o2)C(=O)N1c1ccc2c(c1)OCO2	3.28 µM (active)		29 µM (active)
N#Cc1c(O)nc(SCC(=O)N2c3ccccc3Sc3ccccc32)nc1-c1ccccc1		2.41 µM (active)	10.2 µM (active)
